Key:
Type in all cases: in vivo
barnyardgrass (Ec) = experiment: Test Example 1: herbicidal effects by paddy field soil treatment; details: 100 g of the active ingredient per 10 ares, 21st day after the application, index 0-5 of Table 47;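 also: grade of growth control; 5 = at least 90%; 4 = 70 to 90%; 3 = 50 to 70%; 2 = 30 to 50%; 1 = 10 to 30%; 0 = under 10%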
In short: (§1)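 Greenhouse pot test in flooded paddy soil, dosed at 100 g a.i. per 10 ares; effect scored on day 21.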

bulrush (Sc) = experiment: as above; details: 100 g of the active ingredient per 10 ares, 21st day after the application, index 0-5 of Table 47;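 also: grade of growth control; 5 = at least 90%; 4 = 70 to 90%; 3 = 50 to 70%; 2 = 30 to 50%; 1 = 10 to 30%; 0 = under 10%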
In short: as §1

monochoria (Mo) = experiment: as above; details: 100 g of the active ingredient per 10 ares, 21st day after the application, index 0-5 of Table 47;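 also: grade of growth control; 5 = at least 90%; 4 = 70 to 90%; 3 = 50 to 70%; 2 = 30 to 50%; 1 = 10 to 30%; 0 = under 10%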
In short: as §1

China jute (Ab) [1] = experiment: Test Example 6: crop plant selectivity by upland field soil treatment (soybean), herbicidal effects; set-up: scale not given here; details: 21st day after application
In short: (§2)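 Pre-emergence soil treatment; sand-filled pots, seeds sown then soil-covered; greenhouse culture; visual rating of weed control and soybean injury on day 21 post-application per standard scale.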

[2] = tested on: common lambsquarters (Ch); experiment: as above; set-up: scale not given here; details: 21st day after application
In short: as §2

green foxtail (Se) = experiment: as above; set-up: scale not given here; details: 21st day after application
In short: as §2

China jute (Ab) [3] = experiment: Test Example 11: crop plant selectivity by upland field foliage treatment (corn), herbicidal effects; set-up: scale not given here; details: dose 1.6 g ai/10a
In short: (§3)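 Corn and the weed species were sown together in sand-filled pots and grown in a greenhouse for 2 weeks before foliar treatment. Herbicidal effect was scored on day 14 after treatment against a graded standard scale, with corn phytotoxicity scored alongside.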

[4] = tested on: common lambsquarters (Ch); experiment: as above; set-up: scale not given here; details: dose 1.6 g ai/10a
In short: as §3

pale smartweed (Po) = experiment: as above; set-up: scale not given here; details: dose 1.6 g ai/10a
In short: as §3

[5] = upland field foliage treatment (corn test), 14th day after treatment

Row | SMILES | Herbicidal effects Ec (barnyardgrass (Ec)) | Herbicidal effects Sc (bulrush (Sc)) | Herbicidal effects Mo (monochoria (Mo)) | Herbicidal effects Ab (China jute (Ab) [1]; dose 1.6 g ai/10a) | Herbicidal effects Ch ([2]; dose 1.6 g ai/10a) | Herbicidal effects Se (green foxtail (Se); dose 1.6 g ai/10a) | Herbicidal effects Ab (China jute (Ab) [3]; China jute, foliage treatment, evaluated on 14th day after treatment, index per Table 47) | Herbicidal effects Ch ([4]; common lambsquarters, foliage treatment, evaluated on 14th day after treatment, index per Table 47) | Herbicidal effects Po (pale smartweed (Po); pale smartweed, foliage treatment, evaluated on 14th day after treatment, index per Table 47) | Herbicidal effects Ab (China jute (Ab) [3]; [5]) | Herbicidal effects Ch [4, 5] | Herbicidal effects Po (pale smartweed (Po); [5]) | Herbicidal effects Ab (China jute (Ab) [1]; dose 6.3 g ai/10a) | Herbicidal effects Ch ([2]; dose 6.3 g ai/10a) | Herbicidal effects Se (green foxtail (Se); dose 6.3 g ai/10a)
1 | C#CC(C)Oc1cc(-c2cn(C)c(C(F)(F)F)cc2=O)c(F)cc1Cl (racemic) [Compound 6-10] | 5 | 5 | 5 | 4 | 5 | 4 | 5 | 5 | 4 |  |  |  |  |  | 
2 | COc1cc(-c2ccc(C(F)(F)F)n(C)c2=O)c(F)cc1Cl [1-15] | 5 | 5 | 5 | 5 | 5 | 5 |  |  |  |  |  |  |  |  | 
3 | C=CCOc1cc(-c2ccc(C(F)(F)F)n(C)c2=O)c(F)cc1Cl [1-16] | 5 | 5 | 5 | 5 | 5 | 5 |  |  |  | 5 | 5 | 5 |  |  | 
4 | C#CC(C)Oc1cc(-c2ccc(C(F)(F)F)n(C)c2=O)c(F)cc1Cl (stereo not drawn) [1-17] | 5 | 5 | 5 | 5 | 5 | 5 |  |  |  |  |  |  |  |  | 
5 | C#CCOc1cc(-c2ccc(C(F)(F)F)n(C)c2=O)c(F)cc1Cl [1-18] | 5 | 5 | 5 | 5 | 5 | 5 |  |  |  | 5 | 5 | 5 |  |  | 
6 | Cn1c(C(F)(F)F)ccc(-c2cc(OCC#N)c(Cl)cc2F)c1=O [1-25] | 5 | 5 | 5 |  |  |  |  |  |  | 5 | 5 | 5 | 5 | 5 | 5
7 | C#CCOc1cc(-c2ccc(C(F)(F)F)n(C)c2=O)c(Cl)cc1Cl [1-30] | 5 | 5 | 5 | 5 | 5 | 5 |  |  |  | 5 | 5 | 5 |  |  | 
8 | CC(C)Sc1cc(-c2ccc(C(F)(F)F)n(C)c2=O)c(F)cc1Cl [1-43] | 5 | 5 | 5 |  |  |  |  |  |  |  |  |  | 4 | 5 | 5
9 | C#CCSc1cc(-c2ccc(C(F)(F)F)n(C)c2=O)c(F)cc1Cl [1-44] | 5 | 5 | 5 |  |  |  |  |  |  |  |  |  | 5 | 5 | 5
10 | CCOC(=O)c1cc(-c2ccc(C(F)(F)F)n(C)c2=O)c(F)cc1Cl [1-65] | 5 | 5 | 5 | 5 | 5 | 5 |  |  |  | 5 | 5 | 5 | 5 | 5 | 5
11 | Cc1cc(-c2ccc(C(F)(F)F)n(C)c2=O)c(F)cc1Cl [1-90] | 5 | 5 | 5 | 5 | 5 | 5 |  |  |  |  |  |  | 5 | 5 | 5
